Experimental data published in patent US9278146B2, “Peptide derivative and use of the same” (priority 2010, dated 2016).

Experiments:
pancreatic β-cells = assay: Two-dimensional imaging analysis (fluorescence and autoradiography) of pancreas sections; type: in vivo, MIP-GFP mouse; conditions: without blocking
Protocol: (IB-PEG3)12-Ex4 (5.6 μCi/100 μl) was administered to an unanesthetized MIP-GFP mouse (male, weight: 20 g) by intravenous injection, and after 30 minutes from the administration, the pancreas was dissected out of the mouse (n=1). Sections were cut out of the dissected pancreas, and each section was placed on a slide glass, covered with a cover glass. The fluorescence and the radioactivity (autoradiography) of each section were determined using an image analyzer (trade name: Typhoon 9410, manufactured by GE Health Care Inc.) (exposure time 24 hours).
Sections were cut out of the dissected pancreas, and each section was placed on a slide glass, covered with a cover glass. The fluorescence and the radioactivity (autoradiography) of each section were determined using an image analyzer (trade name: Typhoon 9410, manufactured by GE Health Care Inc.) (exposure time 48 hours).
Other than these, the fluorescence and the radioactivity were determined in the same manner as above.
(FB-PEG3)12-Ex4 (292 μCi/220 μl) was administered to an unanesthetized MIP-GFP mouse (male, weight: 20 g) by intravenous injection, and after 15 minutes from the administration, the pancreas was dissected out of the mouse (n=1). Sections were cut out of the dissected pancreas, and each section was placed on a slide glass, covered with a cover glass. […]

[1] = mouse, in vivo
Protocol: (§1) After 5 minutes, 15 minutes, 30 minutes, 60 minutes, and 120 minutes from the administration, organs were dissected out of the mice (n=5).
as §1
(§2) (IB-PEG3)12-Ex4 (0.77 μCi) was administered to unanesthetized 6-week-old ddY mice (male, weight: 30 g) by intravenous injection (through the tail vein). After 5 minutes, 15 minutes, 30 minutes, 60 minutes, and 120 minutes from the administration, organs were dissected out of the mice (n=5). The weight and the radioactivity of each organ were determined, and an accumulation amount (% dose/g) of (IB-PEG3)12-Ex4 was calculated from the radioactivity per unit weight.
as §1
as §2, with “(FB-PEG3)12-Ex4 (5” for “(IB-PEG3)12-Ex4 (0.77”, “(FB-PEG3)12-Ex4” for “(IB-PEG3)12-Ex4”
as §2, with “(IB-ePEG12)12-Ex4 (0.21” for “(IB-PEG3)12-Ex4 (0.77”, “(IB-ePEG12)12-Ex4” for “(IB-PEG3)12-Ex4”

| accumulation in the pancreas [1] | radioactive accumulation in the bone [1] | ratio of pancreas/blood [1] | ratio of pancreas/liver [1] | Substance | localization of the radioactivity signal versus GFP signal in pancreas sections (pancreatic β-cells) |
| --- | --- | --- | --- | --- | --- |
| exceeding 15 % dose/g | small | greater than 5 | greater than 10 | (FB-PEG3)12-Ex4 | substantially consistent with that of the GFP signal |
| exceeding 25 % dose/g |  | greater than 5 | greater than 10 | (IB-ePEG12)12-Ex4 |  |
| exceeding 25 % dose/g |  | greater than 5 | greater than 10 | (IB-PEG3)12-Ex4 | substantially consistent with that of the GFP signal |
